From patent US20240000872A1, “NOVEL BACTERIOPHAGE THAT LYSES ACINETOBACTER GENUS BACTERIA HAVING RESISTANCE TO ANTIBIOTICS” (priority 2020, published 2024)

Tested on: Acinetobacter baumannii strains
Assay: Antibiotic susceptibility test (CLSI disk diffusion test method, read per CLSI 2016)
Assay type: cell-based
Design: antibiotic susceptibility test value / susceptibility test value (number given before S/I/R) / antibiotic susceptibility value: unit not given here
Description: (§1) Strain identification was performed using a kit such as AT 32 GN system (bioMérieux, Marcy l'Etoile, France). […] In Table 2 below, S, I, and R are the results obtained by evaluating susceptibility to the antibacterial agents, in which ‘S’ means susceptible, ‘I’ means intermediate, and ‘R’ means resistant.
as §1, with “as ATB” for “as AT”, “system (bioMédrieux,” for “system (bioMérieux,”, “Table 6” for “Table 2”
as §1, with “as ATB” for “as AT”, “Table 10” for “Table 2”, “susceptible, T” for “susceptible, ‘I’”

## gentamicin
Host strain YMC16/01/R353
  antibiotic susceptibility value: 16
  susceptibility category (S/I/R): R
  susceptibility test value (number given before S/I/R): 16
Host strain YMC16/01/R380
  antibiotic susceptibility S/I/R: R
  antibiotic susceptibility value: 16
  susceptibility category (S/I/R): R
  susceptibility test value (number given before S/I/R): 16
Host strain YMC16/01/R397
  antibiotic susceptibility S/I/R: R
  antibiotic susceptibility value: 16
  susceptibility category (S/I/R): R
  susceptibility test value (number given before S/I/R): 16
Host strain YMC16/01/R405
  antibiotic susceptibility S/I/R: R
  antibiotic susceptibility value: 16
  susceptibility category (S/I/R): R
  susceptibility test value (number given before S/I/R): 16
Host strain YMC16/03/R4461
  antibiotic susceptibility S/I/R: R
  antibiotic susceptibility value: 16
  susceptibility category (S/I/R): R
  susceptibility test value (number given before S/I/R): 16
Host strain YMC16/05/R2210
  antibiotic susceptibility S/I/R: R
  antibiotic susceptibility value: 16
  susceptibility category (S/I/R): R
  susceptibility test value (number given before S/I/R): 16
Host strain YMC16/07/R2512
  antibiotic susceptibility S/I/R: R
  antibiotic susceptibility value: 16
  susceptibility category (S/I/R): R
  susceptibility test value (number given before S/I/R): 16
Host strain YMC16/09/R2471
  antibiotic susceptibility S/I/R: R
  antibiotic susceptibility value: 16
  susceptibility category (S/I/R): R
  susceptibility test value (number given before S/I/R): 16
Host strain YMC16/10/R2537
  antibiotic susceptibility S/I/R: R
  antibiotic susceptibility value: 16
  susceptibility category (S/I/R): R
  susceptibility test value (number given before S/I/R): 16
Host strain YMC16/12/B11422
  antibiotic susceptibility S/I/R: R
  antibiotic susceptibility value: 16
  susceptibility category (S/I/R): R
  susceptibility test value (number given before S/I/R): 16
Host strain YMC16/12/B11449
  antibiotic susceptibility S/I/R: R
  antibiotic susceptibility value: 16
  susceptibility category (S/I/R): R
  susceptibility test value (number given before S/I/R): 16
Host strain YMC16/12/B13325
  antibiotic susceptibility S/I/R: R
  antibiotic susceptibility value: 16
  susceptibility category (S/I/R): R
  susceptibility test value (number given before S/I/R): 16
Host strain YMC16/12/P503
  antibiotic susceptibility S/I/R: R
  antibiotic susceptibility value: 16
  susceptibility category (S/I/R): R
  susceptibility test value (number given before S/I/R): 16
Host strain YMC16/12/R4637
  antibiotic susceptibility S/I/R: R
  antibiotic susceptibility value: 16
  susceptibility category (S/I/R): R
  susceptibility test value (number given before S/I/R): 16
Host strain YMC17/01/B8053
  antibiotic susceptibility S/I/R: R
  antibiotic susceptibility value: 16
  susceptibility category (S/I/R): R
  susceptibility test value (number given before S/I/R): 16
Host strain YMC17/01/B10087
  antibiotic susceptibility S/I/R: R
  antibiotic susceptibility value: 16
  susceptibility category (S/I/R): R
  susceptibility test value (number given before S/I/R): 16
Host strain YMC17/01/B12075
  antibiotic susceptibility S/I/R: S
  antibiotic susceptibility value: 1
  susceptibility category (S/I/R): S
  susceptibility test value (number given before S/I/R): 1
Host strain YMC17/01/B13454
  antibiotic susceptibility S/I/R: R
  antibiotic susceptibility value: 16
  susceptibility category (S/I/R): R
  susceptibility test value (number given before S/I/R): 16
Host strain YMC17/01/P518
  antibiotic susceptibility S/I/R: R
  antibiotic susceptibility value: 16
  susceptibility category (S/I/R): R
  susceptibility test value (number given before S/I/R): 16
Host strain YMC17/01/R2812
  antibiotic susceptibility S/I/R: R
  antibiotic susceptibility value: 16
  susceptibility category (S/I/R): R
  susceptibility test value (number given before S/I/R): 16
Host strain YMC17/02/B14
  antibiotic susceptibility S/I/R: R
  antibiotic susceptibility value: 16
  susceptibility category (S/I/R): R
  susceptibility test value (number given before S/I/R): 16
Host strain YMC17/02/B87
  antibiotic susceptibility S/I/R: S
  antibiotic susceptibility value: 2
  susceptibility category (S/I/R): S
  susceptibility test value (number given before S/I/R): 2
Host strain YMC17/02/B721
  antibiotic susceptibility S/I/R: R
  antibiotic susceptibility value: 16
  susceptibility category (S/I/R): R
  susceptibility test value (number given before S/I/R): 16
Host strain YMC17/02/B4039
  antibiotic susceptibility S/I/R: R
  antibiotic susceptibility value: 16
  susceptibility category (S/I/R): R
  susceptibility test value (number given before S/I/R): 16
Host strain YMC17/02/B4520
  antibiotic susceptibility S/I/R: R
  antibiotic susceptibility value: 16
  susceptibility category (S/I/R): R
  susceptibility test value (number given before S/I/R): 16
Host strain YMC17/02/B4864
  antibiotic susceptibility S/I/R: S
  antibiotic susceptibility value: 1
  susceptibility category (S/I/R): S
  susceptibility test value (number given before S/I/R): 1
Host strain YMC17/02/B8414
  antibiotic susceptibility S/I/R: R
  antibiotic susceptibility value: 16
  susceptibility category (S/I/R): R
  susceptibility test value (number given before S/I/R): 16
Host strain YMC17/02/P523
  antibiotic susceptibility S/I/R: S
  antibiotic susceptibility value: 4
  susceptibility category (S/I/R): S
  susceptibility test value (number given before S/I/R): 4
Host strain YMC17/02/R541
  antibiotic susceptibility S/I/R: R
  antibiotic susceptibility value: 16
  susceptibility category (S/I/R): R
  susceptibility test value (number given before S/I/R): 16
Host strain YMC17/02/R2392
  antibiotic susceptibility S/I/R: R
  antibiotic susceptibility value: 16
  susceptibility category (S/I/R): R
  susceptibility test value (number given before S/I/R): 16
Host strain YMC17/03/B4730
  antibiotic susceptibility S/I/R: R
  antibiotic susceptibility value: 16
  susceptibility category (S/I/R): R
  susceptibility test value (number given before S/I/R): 16
Host strain YMC17/03/B5000
  antibiotic susceptibility S/I/R: R
  antibiotic susceptibility value: 16
  susceptibility category (S/I/R): R
  susceptibility test value (number given before S/I/R): 16
Host strain YMC17/03/P971
  antibiotic susceptibility S/I/R: R
  antibiotic susceptibility value: 16
  susceptibility category (S/I/R): R
  susceptibility test value (number given before S/I/R): 16
Host strain YMC17/03/R348
  antibiotic susceptibility S/I/R: R
  antibiotic susceptibility value: 16
  susceptibility category (S/I/R): R
  susceptibility test value (number given before S/I/R): 16
Host strain YMC17/03/R585
  antibiotic susceptibility S/I/R: R
  antibiotic susceptibility value: 16
  susceptibility category (S/I/R): R
  susceptibility test value (number given before S/I/R): 16
Host strain YMC17/03/R1888
  antibiotic susceptibility S/I/R: R
  antibiotic susceptibility value: 16
  susceptibility category (S/I/R): R
  susceptibility test value (number given before S/I/R): 16
Host strain YMC17/03/R3279
  antibiotic susceptibility S/I/R: R
  antibiotic susceptibility value: 16
  susceptibility category (S/I/R): R
  susceptibility test value (number given before S/I/R): 16
Host strain YMC17/03/R4077
  antibiotic susceptibility S/I/R: R
  antibiotic susceptibility value: 16
  susceptibility category (S/I/R): R
  susceptibility test value (number given before S/I/R): 16
Host strain YMC17/03/R4607
  antibiotic susceptibility S/I/R: R
  antibiotic susceptibility value: 16
  susceptibility category (S/I/R): R
  susceptibility test value (number given before S/I/R): 16
Host strain YMC17/04/R488
  antibiotic susceptibility S/I/R: R
  antibiotic susceptibility value: 16
  susceptibility category (S/I/R): R
  susceptibility test value (number given before S/I/R): 16
Host strain YMC17/04/R640
  antibiotic susceptibility S/I/R: R
  antibiotic susceptibility value: 16
  susceptibility category (S/I/R): R
  susceptibility test value (number given before S/I/R): 16
Host strain YMC/17/05/R1095
  antibiotic susceptibility S/I/R: R
  antibiotic susceptibility value: 16
  susceptibility category (S/I/R): R
  susceptibility test value (number given before S/I/R): 16
